This note sets out measurements from PMC9718554, “Discovery of a fragment hit compound targeting D-Ala:D-Ala ligase of bacterial peptidoglycan biosynthesis” (Journal of Enzyme Inhibition and Medicinal Chemistry, 2022).

The first assay concerns the target T1, E. coli DdlB enzyme (D-alanine:D-alanine ligase) (Escherichia coli, UniProt P07862).
T1 construct: made in house; host or cells: E. coli
Description: biochemical. The note with it: fragment library screening; tested concentration 1.8 mM; read-out: DdlB RA.
For `Cc1onc(C(=O)O)c1COc1ccc([N+](=O)[O-])cc1` [Compound Y504-8568], the remaining activity at 1800 µM was determined as 97%. Same read-out and setting: the figure for `CCNc1cc(N2CCC(CCC(=O)O)CC2)ncn1` [Compound P207-8919] is 83%.

Staying with this assay, now noted: fragment library screening; tested concentration 2.0 mM; read-out: DdlB RA.
`O=C(O)c1ccc(N2Cc3ccccc3C2=O)cc1` [Compound Y042-2866]: the remaining activity at 2000 µM came to 82%.

Still in this assay, the particulars now being: read-out: DdlB RA.
Regarding `N[C@H](c1ccccc1)[C@@H](N)c1ccccc1` [FLD112], the remaining activity at 2500 µM was 100%.

Staying with this assay, now noted: residual activity of DdlB, fragment library screening, tested concentration 3.3 mM; read-out: DdlB RA.
Regarding `CCOc1ncccc1CN` [Compound S055-1650], the remaining activity at 3300 µM was 89%.

Still in this assay, the particulars now being: residual activity of DdlB, fragment library screening, tested concentration 3.4 mM; read-out: DdlB RA.
For `CCc1c(C)nn2cnnc2c1O` [Compound 8010-0007], the remaining activity at 3400 µM was determined as 97%.

The assay is the same for the next values; noted with them: residual activity of DdlB; fragment library screening; tested concentration 2.5 mM; read-out: DdlB RA.
Take `NS(=O)(=O)c1ccccc1` [FLD110]: the remaining activity at 2500 µM stood at 110%.

`N#Cc1ccsc1N` [FLD136]: the remaining activity at 2500 µM stood at 100%. On the same count and under the same terms, the figure for `NOCc1ccccc1` [FLD044] is 94%; for `O=C(O)C1Cc2ccccc2N1` (centres unmarked) [FLD038] it is 81%; for `O=C(O)Cc1ccc(F)c(C(F)(F)F)c1` [FLD148] it is 100%. On the same count and under the same terms, then `NCc1nc2ccccc2[nH]1` [FLD157], with 105%. Same read-out and setting: then `Brc1ccccn1` [FLD169], with 100%; and `Nc1cccc([N+](=O)[O-])c1` [FLD061], with 98%; and `Cc1ccc(C#N)c(O)n1` [FLD051], with 97%.

In the case of `CC(=O)N1CCC(=O)CC1` [FLD190], the remaining activity at 2500 µM was found to be 100%.

For `Nn1cnnc1` [FLD138], the remaining activity at 2500 µM worked out at 96%. The same measure, in the same setting: the figure for `O=C1CNCCN1` [FLD058] is 100%; for `OC1CCCc2ccccc21` (centres unmarked) [FLD077] it is 99%; for `NC(=O)Nc1ccccc1` [FLD016] it is 99%. Same read-out and setting: then `Fc1cc(Br)ccc1CN1CCCNCC1` [FLD158], with 63%. The same measure, in the same setting: then `O=C(O)C(c1ccccc1)c1ccccc1` [FLD066], with 100%; and `Oc1c(F)c(F)c(F)c(F)c1F` [FLD172], with 92%; and `COc1cc(N)c(C#N)cc1OC` [FLD048], with 100%. As to `NC(=O)c1ccccc1N` [FLD043], the remaining activity at 2500 µM amounted to 98%. On to `Cc1cc(N)no1` [FLD014], for which the remaining activity at 2500 µM was 104%. The same measure, in the same setting: then `COC(=O)c1ccccc1C(=O)O` [FLD006], with 89%.

The same assay, now with this note: residual activity; tested concentration 1.7 mM; read-out: DdlB RA.
On to `Cc1ccccc1NS(=O)(=O)c1c[nH]c2ncccc12` [Compound P633-0038], for which the remaining activity at 1700 µM came to 89%. The same measure, in the same setting: then `O=C(Nc1ccc(Cl)cc1)Nc1ccccc1C(=O)O` [Compound Y020-0051], with 119%.

For the compound `Cc1nnc(C2CCCCN2C(=O)NC2CCCCC2)[nH]1` (centres unmarked) [Compound M754-0764], the remaining activity at 1700 µM is 77%.

Still in this assay, the particulars now being: residual activity; tested concentration 1.8 mM; read-out: DdlB RA.
On to `O=c1[nH]c(O)ncc1S(=O)(=O)NC1CCCCC1` [Compound D668-0013], for which the remaining activity at 1800 µM came out at 99%. For `O=C(c1n[nH]c2ccccc12)N1C[C@H]2CCC[C@@H](O)[C@H]2C1` [Compound S890-0272], the remaining activity at 1800 µM amounted to 95%.

For `O=C(O)Cc1nc(-c2cncc(Br)c2)n[nH]1` [Compound 8020-5455], the remaining activity at 1800 µM was determined as 94%. The same measure, in the same setting: the figure for `Cc1cccc(C(=O)O)c1NC(=O)c1ccc(F)cc1` [Compound 8009-0898] is 99%.

The same assay, now with this note: residual activity; tested concentration 1.9 mM; read-out: DdlB RA.
For the compound `CCn1cc(C(=O)Nc2ccccc2C(=O)O)cn1` [Compound Y501-0105], the remaining activity at 1900 µM came out at 88%. The same measure, in the same setting: then `CCn1c(C(=O)N2CCC(C(=O)O)CC2)cc2occc21` [FF01-0413], with 110%. Same read-out and setting: the figure for `COc1ccc(CNc2ccccc2C(=O)O)cc1` [Compound K783-0843] is 101%; for `O=C(O)c1cccn2c(=O)c3cc(F)ccc3nc12` [Compound C200-9599] it is 85%.

The same assay, now with this note: residual activity; tested concentration 2.0 mM; read-out: DdlB RA.
For the compound `Cc1ccc(CC2CC(=O)N(c3ccncc3)C2=O)cc1` (centres unmarked) [Compound 6903-0015], the remaining activity at 2000 µM was found to be 84%. The same measure, in the same setting: the figure for `Cc1ccc(C(=O)O)c(NC(=O)c2ccncc2)c1` [Compound 8006-9224] is 97%; for `O=C(O)c1ccccc1NC(=O)N1CCOCC1` [Compound Y043-2494] it is 96%.

Staying with this assay, now noted: residual activity; tested concentration 2.1 mM; read-out: DdlB RA.
Turning to `CCC(=O)N1CCC(c2nc(C3CCOCC3)no2)C1` (centres unmarked) [Compound S428-0464], the remaining activity at 2100 µM is 95%. The same measure, in the same setting: the figure for `Cc1noc(C)c1C(=O)NCC1Cn2cccc2CN1C` (centres unmarked) [Compound S590-0019] is 45%.

Staying with this assay, now noted: residual activity; tested concentration 2.2 mM; read-out: DdlB RA.
In the case of `COc1cc(C(=O)NO)cc(OC)c1OC` [Compound 8017-0604], the remaining activity at 2200 µM worked out at 96%. On the same count and under the same terms, the figure for `O=C(O)C1CCN(c2cnc(N3CCCC3)nc2)CC1` [FF01-3116] is 69%; for `O=C(NCc1c[nH]c2ncccc12)C1CCC1` [Compound P610-0073] it is 90%.

Staying with this assay, now noted: residual activity; tested concentration 2.3 mM; read-out: DdlB RA.
As to `CC1CC(C)(C)Nc2c(C(=O)O)cccc21` (centres unmarked) [Compound Y021-0767], the remaining activity at 2300 µM came to 97%. Turning to `CC(c1c[nH]c2ccccc12)C(O)C(=O)O` (centres unmarked) [Compound 8019-4518], the remaining activity at 2300 µM was found to be 100%. On the same count and under the same terms, the figure for `N#CCc1nnc(-c2cccc(Cl)c2)[nH]1` [Compound 8018-3009] is 93%.

Staying with this assay, now noted: tested concentration 1.7 mM; read-out: DdlB RA.
Take `O=c1c(O)c(Nc2ccc(CN3CCCCC3)cc2)c1=O` [Compound G317-0765]: the remaining activity at 1700 µM came to 92%. Still for that read-out and setting: then `COc1ccc(-c2c(Nc3cccc(C)c3)c(=O)c2=O)cc1` [Compound E470-1008], with 100%; and `NS(=O)(=O)c1ccc(NC(=O)CCn2cnnn2)cc1` [Compound 8017-4431], with 99%.

Still in this assay, the particulars now being: tested concentration 1.9 mM; read-out: DdlB RA.
In the case of `O=c1c(NCc2ccccn2)c(-c2ccccc2)c1=O` [Compound E470-0290], the remaining activity at 1900 µM is 96%.

For the compound `CCc1cc(C2CCCN2S(=O)(=O)CC)on1` (centres unmarked) [Compound J005-1008], the remaining activity at 1900 µM amounted to 98%. On the same count and under the same terms, the figure for `CC(=O)N1C(C(=O)O)CSC1c1ccc(C)cc1` (centres unmarked) [Compound C796-0200] is 90%.

Still in this assay, the particulars now being: tested concentration 2.0 mM; read-out: DdlB RA.
For the compound `CCn1cnnc1-c1nn(C)c2c1CNCC2` [Compound S565-0571], the remaining activity at 2000 µM was 89%.

On to `CCOc1c(Nc2ccc(OC)cc2)c(=O)c1=O` [Compound G317-0026], for which the remaining activity at 2000 µM was found to be 93%. Still for that read-out and setting: then `CCS(=O)(=O)N1CCC2(CCC2OC)CC1` (centres unmarked) [Compound S664-0247], with 92%.

Still in this assay, the particulars now being: tested concentration 2.2 mM; read-out: DdlB RA.
As to `O=C1Nc2ncccc2OC1c1ccccc1` (centres unmarked) [FF01-0341], the remaining activity at 2200 µM worked out at 106%. Still for that read-out and setting: then `O=S(=O)(O)c1nnc(-c2ccncc2)[nH]1` [Compound 8020-6014], with 80%.

For the compound `CCOc1c(NC2CCCCC2)c(=O)c1=O` [Compound K906-2368], the remaining activity at 2200 µM was found to be 76%. On the same count and under the same terms, the figure for `O=S(=O)(O)c1ccc2cccc(O)c2n1` [Compound 8009-2146] is 96%.

Staying with this assay, now noted: tested concentration 2.3 mM; read-out: DdlB RA.
With `COc1ccc2ncc(C(=O)O)c(O)c2c1` [Compound D284-0199], the remaining activity at 2300 µM stood at 66%. On the same count and under the same terms, then `CCCn1c(C)cnc1C1CCNC1` (centres unmarked) [Compound T158-0004], with 86%.

Take `O=C1C(O)CC2c3ccccc3CC3(CCCC3)N12` (centres unmarked) [Compound 8014-1716]: the remaining activity at 2300 µM was 85%. The same measure, in the same setting: then `O=C(NC1CC(=O)N(c2cccc(F)c2)C1)C1CC1` (centres unmarked) [Compound G856-7454], with 91%.

Still in this assay, the particulars now being: tested concentration 2.4 mM; read-out: DdlB RA.
As to `O=C(O)Cc1nc(-c2cnccn2)n[nH]1` [Compound 8020-1590], the remaining activity at 2400 µM worked out at 102%. Same read-out and setting: the figure for `CCC(CC)NC1=NS(=O)(=O)c2ccccc21` [Compound 8003-7481] is 100%. The same measure, in the same setting: then `CC1=NN(C(C#N)c2cn(C)nc2C)C(C)(C)C1` (centres unmarked) [Compound 8017-8222], with 105%; and `NS(=O)(=O)c1cccc2cccnc12` [Compound R005-0042], with 88%.

The assay is the same for the next values; noted with them: tested concentration 2.6 mM; read-out: DdlB RA.
With `O=C(O)CCc1cn2cccnc2n1` [Compound 8020-2316], the remaining activity at 2600 µM came out at 94%.

Regarding `O=c1c(O)c(NCc2ccco2)c1=O` [Compound G317-0464], the remaining activity at 2600 µM came out at 89%.

As to `O=C(Cc1ccccc1)NCC1CCOCC1` [Compound P970-0162], the remaining activity at 2600 µM stood at 92%.

The assay is the same for the next values; noted with them: tested concentration 2.7 mM; read-out: DdlB RA.
As for `O=C(O)C1C2CCC(C2)C1C(=O)NC1CC1` (centres unmarked) [Compound Y205-0716], the remaining activity at 2700 µM came to 93%. Same read-out and setting: the figure for `Oc1nsnc1N1CCOCC1` [Compound 8009-8691] is 88%.

Staying with this assay, now noted: tested concentration 2.8 mM; read-out: DdlB RA.
On to `CC(C)(C)NS(=O)(=O)c1ccccc1` [Compound 0896-4384], for which the remaining activity at 2800 µM came out at 95%.

Still in this assay, the particulars now being: tested concentration 3.0 mM; read-out: DdlB RA.
Turning to `CCS(=O)(=O)Nc1cccc(F)c1` [Compound Y207-1326], the remaining activity at 3000 µM came to 92%.

Staying with this assay, now noted: tested concentration 3.1 mM; read-out: DdlB RA.
In the case of `Oc1cc(-c2cccnc2)n[nH]1` [Compound 8018-0078], the remaining activity at 3100 µM turned out to be 91%.

The same assay, now with this note: tested concentration 3.9 mM; read-out: DdlB RA.
For the compound `O=C(O)c1cc(O)no1` [Compound 8020-2787], the remaining activity at 3900 µM amounted to 92%.

The same assay, now with this note: tested concentration 4.3 mM; read-out: DdlB RA.
Take `CC1CCOB(O)O1` (centres unmarked) [Compound 0199-0113]: the remaining activity at 4300 µM came to 89%.
